Laboratory results as given in ChEMBL document CHEMBL1143474, “Synthesis and pharmacological evaluation of Tic-hydantoin derivatives as selective sigma1 ligands. Part 1” (Bioorg Med Chem Lett, 2005).

Tests used:
Sigma 2 receptor = assay: Inhibitory concentration against opioid receptor sigma 2 of rat cerebral cortex using [3H]DTG upon incubation for 120 minutes at 22 degree C; assay type: tissue-based
[1] = molecular target: Sigma non-opioid intracellular receptor 1 (Cavia porcellus) (UniProt Q60492); assay: Inhibitory concentration against opioid receptor sigma 1 of guinea pig cerebral cortex using [3H](+)-pentazocine upon incubation for 150 minutes at 22 degree C
Chain of Sigma non-opioid intracellular receptor 1 (Cavia porcellus) (Q60492 whole entry, looked up): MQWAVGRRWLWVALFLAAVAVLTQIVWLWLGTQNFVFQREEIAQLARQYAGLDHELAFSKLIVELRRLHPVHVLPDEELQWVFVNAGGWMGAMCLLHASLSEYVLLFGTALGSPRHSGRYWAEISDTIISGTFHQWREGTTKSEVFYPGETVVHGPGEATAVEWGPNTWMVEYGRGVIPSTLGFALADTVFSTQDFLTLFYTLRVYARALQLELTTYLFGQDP

| SMILES | IC50 (Sigma 2 receptor) | IC50 [1] |
| --- | --- | --- |
| O=C1[C@@H]2Cc3ccccc3N2C(=O)N1CCCN1CCCCC1 | > 1 µM |  |
| c1ccc2c(c1)C[C@H]1CN(CCN3CCCCC3)CN1C2 | > 1 µM |  |
| O=C1N(CCN2CCCCC2)C[C@@H]2Cc3ccccc3CN12 | > 1 µM |  |

Other lines, results leading:

| IC50 (Sigma 2 receptor) | IC50 [1] | SMILES |
| --- | --- | --- |
| 0.507 µM |  | O=C1[C@@H]2Cc3ccccc3CN2C(=S)N1CCN1CCCCC1 |
| > 1 µM |  | O=C1[C@H]2Cc3ccccc3CN2C(=O)N1CCN1CCCCC1 |
| > 1 µM | 0.016 µM | O=C1[C@@H]2Cc3ccccc3CN2C(=O)N1CCN1CCCCC1 |
| > 1 µM | 0.0215 µM | O=C1[C@@H]2Cc3ccccc3CN2C(=O)N1CCCN1CCCCC1 |
